# Test results as given in article PMC8477192, “An ionic lock and a hydrophobic zipper mediate the coupling between an insect pheromone receptor BmOR3 and downstream effectors” (The Journal of Biological Chemistry, 2021).
# What was measured:
# BmOR3 [1] = target: T1, BmOR3 (Bombyx mori, UniProt Q5FBE0); test: GloSensor cAMP assay; type: cell-based; details: BmOR3-transfected HEK293 cells, not in mock cells; 1 μM forskolin
# Method: The GloSensor cAMP assay was performed as previously described ([40], [55], [56]). Briefly, HEK293 cells were transfected with the BmOR3 plasmid or empty vector pcDNA3.1 together with the GloSensor plasmid. 24 h after transfection, cells were distributed into 96-well microplates at a density of 50,000 cells/well. After another 24 h, the cells were incubated with DMEM containing 2% (v/v) GloSensor cAMP reagent for 2 h at 37 °C. Cells were then treated with varying concentrations of bombykal followed by the stimulation of 1 μM forskolin. The luminescence intensity was measured using an EnVision multi-label microplate detector (PerkinElmer).
# BmOR3 [2] = target: T1, BmOR3; test: Arrestin recruitment BRET assay; type: cell-based; details: HEK293 cells, 10 min stimulation
# Method: HEK293 cells were transiently cotransfected with the N-terminal YFP-tagged BmOR3 together with N-terminal Rluc-fused β-arrestin-1, β-arrestin-2, or BmArr plasmids. Twenty-four hours after transfection, cells were distributed into a 96-well microplate and incubated for additional 24 h. The cells were stimulated with varying concentrations of bombykal for 10 min, and the BRET signal between YFP (530 nm) and Rluc (485 nm) was measured after the addition of the Rluc substrate coelenterazine h (5 μM) using a Mithras LB 940 multimode reader (Berthold Technologies). The BRET signal was calculated as the ratio of emission of YFP to Rluc.
# BmOR3 [3] = target: T1, BmOR3; test: Arrestin-kinase BRET assay; type: cell-based; details: HEK293 cells transfected with BmOR3, BmArr-Rluc and YFP-tagged kinases; 1 μM, 10 min
# Method: Twenty-four hours after transfection, cells were distributed into a 96-well microplate. After another 24 h, the cells were stimulated with 1 μM bombykal (for BmOR3-transfected cells) or 1 μM AngII for 10 min (for AT1R-transfected cells). BRET between RLuc and YFP was measured using a Mithras LB 940 multimode reader after the addition of the RLuc substrate coelenterazine h (5 μM). The BRET signal was calculated as the ratio of emission of YFP (530 nm) to RLuc (485 nm).
# BmOR3 [4] = target: T1, BmOR3; test: G protein recruitment BRET assay (Gi-Rluc to YFP-BmOR3); type: cell-based; details: HEK293 cells, 2 min stimulation
# Method: Gi1-Rluc, Gi2-Rluc, and Gi3-Rluc plasmids were constructed according to previous report ([30]). HEK293 cells were transiently cotransfected with N-terminal YFP-tagged BmOR3 together with Gi-Rluc plasmids. Twenty-four hours after transfection, cells were distributed into a 96-well microplate. After another 24 h, the cells were stimulated with an increasing amount of bombykal for 2 min. The light emission of Rluc (485 nm) and YFP (530 nm) was measured after the addition of the Rluc substrate coelenterazine h (5 μM) using a Mithras LB 940 multimode reader (Berthold Technologies). The BRET signal was calculated as the ratio of emission of YFP to Rluc. The net BERT value was calculated by subtracting the BRET signal obtained in the cells transfected with Rluc-Gi plasmids only.
# BmOR3 and BmOrco = test: CalfluxVTN Ca2+ assay (BRET-based calcium sensor); type: cell-based, Bombyx mori
# Method: HEK293 cells were cotransfected with plasmids encoding WT BmOR3 and BmOrco or their mutants, or AT1R together with CalfluxVTN probe. 24 h after transfection, cells were redistributed into 96-well flat-bottomed microplates. After another 24 h, cells were incubated with conventional buffer with Ca^2+ (135 mM NaCl, 5 mM KCl, 1 mM CaCl2, 5 mM D-glucose, 10 mM Hepes; pH = 7.4) or with Ca^2+-free buffer (135 mM NaCl, 5 mM KCl, 1 mM EGTA, 5 mM D-glucose, 10 mM Hepes; pH = 7.4), and stimulated with different concentrations of Bombykal (or AngII). The BRET ratio between Venus and Nluc was measured before (baseline) and after the addition of the Nluc substrate furimazine (5 μM) using a Mithras LB 940 multimode reader (Berthold Technologies). The BRET signal was calculated as ratio of emission of Venus (530 nm) to Nluc (460 nm). The baseline value was subtracted from the bombykal-stimulated BRET signal to obtain the ΔBRET value.
# BmOR3 [5] = target: T1, BmOR3; test: BRET-based internalization assay (Rluc-BmOR3 / Lyn-YFP); type: cell-based; details: HEK293 cells; 1 μM, 20 min
# Method: BRET-based internalization assay was performed as previously described ([57]). Briefly, HEK293 cells treated with Ctrl or β-arrestin-1/2 siRNA, or pretransfected with BmArr, were transiently transfected with N-terminal Rluc-fused BmOR3 and plasma membrane marker Lyn-YFP. Twenty-four hours after transfection, the cells were detached and distributed into a 96-well microplate. After another 24-h incubation at 37 °C, the cells were stimulated with vehicle or 1 μM bombykal at 37 °C for 20 min. Rluc substrate coelenterazine h was added at a final concentration of 5 μM before light emissions of YFP and Rluc were recorded using a Mithras LB 940 microplate reader (Berthold Technologies). The BRET signal was calculated as the ratio of emission of YFP to Rluc.
# BmOR3 [6] = target: T1, BmOR3; test: G protein dissociation BRET assay (TRUPATH probes); type: cell-based
# Method: The Gi, Gq, Go, Gs, and Gz dissociation BRET probes were from the TRUPATH kit, which was a gift from Bryan Roth (Addgene kit #1000000163 ([31])). HEK293 cells were cotransfected with BmOR3 along with specific G protein BRET probes. After 24 h, the cells were reseeded in 96-well microplates and incubated for another 24 h. The cells were washed twice with Hank's balanced salt solution and stimulated with bombykal at different concentrations for 2 min. The light emission of Rluc8 (400 nm) and GFP10 (510 nm) was measured after the addition of the substrate coelenterazine 400a (5 μM) using a Mithras LB 940 multimode reader (Berthold Technologies). The BRET signal was calculated as the ratio of light emission at 510/400 nm.
# T1 sequence (Q5FBE0 entry or part of it): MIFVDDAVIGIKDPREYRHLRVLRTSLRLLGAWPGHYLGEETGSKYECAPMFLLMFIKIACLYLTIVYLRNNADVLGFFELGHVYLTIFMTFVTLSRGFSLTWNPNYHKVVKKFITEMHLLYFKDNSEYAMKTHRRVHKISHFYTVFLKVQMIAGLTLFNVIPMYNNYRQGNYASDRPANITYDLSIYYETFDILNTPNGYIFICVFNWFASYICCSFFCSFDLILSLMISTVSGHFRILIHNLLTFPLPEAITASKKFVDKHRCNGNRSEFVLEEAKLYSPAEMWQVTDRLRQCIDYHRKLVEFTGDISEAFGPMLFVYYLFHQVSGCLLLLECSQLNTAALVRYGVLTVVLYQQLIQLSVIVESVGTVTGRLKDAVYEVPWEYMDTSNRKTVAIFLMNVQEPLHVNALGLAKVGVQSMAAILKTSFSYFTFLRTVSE
smiles,measurement,setting,value
CCC/C=C\C=C\CCCCCCCCC=O [bombykal],forskolin-induced cAMP,BmOR3 [1],concentration-dependent decrease
same,EC50,"BmOR3 [2]; BmArr1, read-out: potency of recruitment of BmArr1 to BmOR3 (concentration-dependent)",90 ± 11.1 nM
same,EC50,"BmOR3 [2]; β-arrestin-2, read-out: potency of recruitment of β-arrestin-2 to BmOR3 (concentration-dependent)",151 ± 21.3 nM
same,"association of β-arrestin with ERK, SRC, and AKT",BmOR3 [3],increased association
same,EC50,"BmOR3 [4]; Gi1, read-out: EC50 of coupling of Rluc-tagged Gi1 to YFP-fused BmOR3",11.7 ± 1.19 nM
same,EC50,"BmOR3 [4]; Gi2, read-out: EC50 of coupling of Rluc-tagged Gi2 to YFP-fused BmOR3",22 ± 3.22 nM
same,EC50,"BmOR3 [4]; Gi3, read-out: EC50 of coupling of Rluc-tagged Gi3 to YFP-fused BmOR3",10.6 ± 2.06 nM
same,Ca2+ signal through BmOR3–BmOrco in the Ca2+-free incubating buffer,"BmOR3 and BmOrco; 1 μM, Ca2+-free buffer versus Ca-containing buffer",completely abolished
same,Ca2+ response through BmOR3/BmOrco relative to that induced by angiotensin II through activating AT1R,"BmOR3 and BmOrco; 1 μM, CalfluxVTN-expressing HEK293 cells, receptors expressed at similar levels",approximately 70%
same,calcium influx in response to stimulation,"BmOR3 and BmOrco; HEK293 cells coexpressing BmOR3 and BmOrco, not with BmOR3 or BmOrco alone",elicited robust calcium influx
same,BmOR3 internalization (BRET signal between Rluc-BmOR3 and Lyn-YFP),BmOR3 [5],significant decrease in the BRET signal
same,Go activation,"BmOR3 [6]; HEK293 cells transfected with BmOR3, Go probes",did not induce
same,Gq activation,"BmOR3 [6]; HEK293 cells transfected with BmOR3, Gq probes",did not induce
same,Gs activation,"BmOR3 [6]; HEK293 cells transfected with BmOR3, Gs probes",did not induce
same,Gz activation,"BmOR3 [6]; HEK293 cells transfected with BmOR3, Gz probes",did not induce
same,EC50,"BmOR3 [6]; HEK293 cells, Gi BRET probes, 2 min stimulation, read-out: EC50 of Gi activation through BmOR3 (decrease of the BRET signal)",16.4 ± 5.04 nM
